# Measured values as given in the supplement of paper PMC8612539.
# Key:
# Mannheimia haemolytica = assay: minimum inhibitory concentration (MIC)
# Procedure: (§1)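 Broth microdilution MIC (Sensititre BOPO7F bovine plate, CLSI methods) of 19 antimicrobials against field isolates of P. multocida, M. haemolytica, H. somni (deep nasopharyngeal swabs) and E. coli, Enterococcus spp. (rectal swabs) from weaned dairy heifers. Incubation 16-24 h at 35 C. MIC is the lowest concentration preventing visible growth. Values with <= or > lie at the tested range limits. Trimethoprim-sulfamethoxazole is given as the trimethoprim component of a 1:19 mixture.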
# Enterococcus spp. = assay: minimum inhibitory concentration (MIC)
# Procedure: as §1
# [1] = isolate (source animal id): 122
# [2] = isolate (source animal id): 123
# [3] = isolate (source animal id): 133
# [4] = isolate (source animal id): 171
# [5] = isolate (source animal id): 183
# [6] = isolate (source animal id): 187
# [7] = isolate (source animal id): 190
# [8] = isolate (source animal id): 211
# [9] = isolate (source animal id): 223
# [10] = isolate (source animal id): 241
# [11] = isolate (source animal id): 252
# [12] = isolate (source animal id): 282
# [13] = isolate (source animal id): 298
# [14] = isolate (source animal id): 320
# [15] = isolate (source animal id): 333
structure (smiles),measurement,setting,value
CC1(C)S[C@@H]2[C@H](NC(=O)[C@H](N)c3ccccc3)C(=O)N2[C@H]1C(=O)O [Ampicillin],minimum inhibitory concentration,Mannheimia haemolytica; isolate (source animal id): 8,≤ 0.25 µg/mL
same,minimum inhibitory concentration,Mannheimia haemolytica; isolate (source animal id): 13,≤ 0.25 µg/mL
same,minimum inhibitory concentration,Mannheimia haemolytica; isolate (source animal id): 18,≤ 0.25 µg/mL
same,minimum inhibitory concentration,Mannheimia haemolytica; isolate (source animal id): 21,≤ 0.25 µg/mL
same,minimum inhibitory concentration,Mannheimia haemolytica; isolate (source animal id): 25,≤ 0.25 µg/mL
same,minimum inhibitory concentration,Mannheimia haemolytica; isolate (source animal id): 27,≤ 0.25 µg/mL
same,minimum inhibitory concentration,Mannheimia haemolytica; isolate (source animal id): 28,> 16 µg/mL
same,minimum inhibitory concentration,Mannheimia haemolytica; isolate (source animal id): 30,≤ 0.25 µg/mL
same,minimum inhibitory concentration,Mannheimia haemolytica; isolate (source animal id): 31,> 16 µg/mL
same,minimum inhibitory concentration,Mannheimia haemolytica; isolate (source animal id): 32,≤ 0.25 µg/mL
same,minimum inhibitory concentration,Mannheimia haemolytica; isolate (source animal id): 34,≤ 0.25 µg/mL
same,minimum inhibitory concentration,Mannheimia haemolytica; isolate (source animal id): 36,≤ 0.25 µg/mL
same,minimum inhibitory concentration,Mannheimia haemolytica; isolate (source animal id): 37,≤ 0.25 µg/mL
same,minimum inhibitory concentration,Mannheimia haemolytica; isolate (source animal id): 40,≤ 0.25 µg/mL
same,minimum inhibitory concentration,Mannheimia haemolytica; isolate (source animal id): 41,≤ 0.25 µg/mL
same,minimum inhibitory concentration,Mannheimia haemolytica; isolate (source animal id): 43,≤ 0.25 µg/mL
same,minimum inhibitory concentration,Mannheimia haemolytica; isolate (source animal id): 46,≤ 0.25 µg/mL
same,minimum inhibitory concentration,Mannheimia haemolytica; isolate (source animal id): 49,≤ 0.25 µg/mL
same,minimum inhibitory concentration,Mannheimia haemolytica; isolate (source animal id): 50,> 16 µg/mL
same,minimum inhibitory concentration,Mannheimia haemolytica; isolate (source animal id): 51,≤ 0.25 µg/mL
same,minimum inhibitory concentration,Mannheimia haemolytica; isolate (source animal id): 52,≤ 0.25 µg/mL
same,minimum inhibitory concentration,Mannheimia haemolytica; isolate (source animal id): 53,≤ 0.25 µg/mL
same,minimum inhibitory concentration,Mannheimia haemolytica; isolate (source animal id): 55,≤ 0.25 µg/mL
same,minimum inhibitory concentration,Mannheimia haemolytica; isolate (source animal id): 56,≤ 0.25 µg/mL
same,minimum inhibitory concentration,Mannheimia haemolytica; isolate (source animal id): 57,≤ 0.25 µg/mL
same,minimum inhibitory concentration,Mannheimia haemolytica; isolate (source animal id): 100,≤ 0.25 µg/mL
same,minimum inhibitory concentration,Mannheimia haemolytica; isolate (source animal id): 103,≤ 0.25 µg/mL
same,minimum inhibitory concentration,Mannheimia haemolytica; isolate (source animal id): 107,≤ 0.25 µg/mL
same,minimum inhibitory concentration,Mannheimia haemolytica; isolate (source animal id): 108,≤ 0.25 µg/mL
same,minimum inhibitory concentration,Mannheimia haemolytica; isolate (source animal id): 112,≤ 0.25 µg/mL
same,minimum inhibitory concentration,Mannheimia haemolytica; isolate (source animal id): 113,≤ 0.25 µg/mL
same,minimum inhibitory concentration,Mannheimia haemolytica; isolate (source animal id): 121,> 16 µg/mL
same,minimum inhibitory concentration,Mannheimia haemolytica; [1],≤ 0.25 µg/mL
same,minimum inhibitory concentration,Mannheimia haemolytica; [2],0.5 µg/mL
same,minimum inhibitory concentration,Mannheimia haemolytica; isolate (source animal id): 126,> 16 µg/mL
same,minimum inhibitory concentration,Mannheimia haemolytica; [3],≤ 0.25 µg/mL
same,minimum inhibitory concentration,Mannheimia haemolytica; isolate (source animal id): 135,≤ 0.25 µg/mL
same,minimum inhibitory concentration,Mannheimia haemolytica; isolate (source animal id): 138,> 16 µg/mL
same,minimum inhibitory concentration,Mannheimia haemolytica; isolate (source animal id): 141,≤ 0.25 µg/mL
same,minimum inhibitory concentration,Mannheimia haemolytica; isolate (source animal id): 142,≤ 0.25 µg/mL
same,minimum inhibitory concentration,Mannheimia haemolytica; isolate (source animal id): 145,≤ 0.25 µg/mL
same,minimum inhibitory concentration,Mannheimia haemolytica; isolate (source animal id): 149,≤ 0.25 µg/mL
same,minimum inhibitory concentration,Mannheimia haemolytica; isolate (source animal id): 151,≤ 0.25 µg/mL
same,minimum inhibitory concentration,Mannheimia haemolytica; isolate (source animal id): 152,≤ 0.25 µg/mL
same,minimum inhibitory concentration,Mannheimia haemolytica; isolate (source animal id): 154,≤ 0.25 µg/mL
same,minimum inhibitory concentration,Mannheimia haemolytica; isolate (source animal id): 159,16 µg/mL
same,minimum inhibitory concentration,Mannheimia haemolytica; isolate (source animal id): 162,8 µg/mL
same,minimum inhibitory concentration,Mannheimia haemolytica; isolate (source animal id): 170,> 16 µg/mL
same,minimum inhibitory concentration,Mannheimia haemolytica; [4],≤ 0.25 µg/mL
same,minimum inhibitory concentration,Mannheimia haemolytica; isolate (source animal id): 172,> 16 µg/mL
same,minimum inhibitory concentration,Mannheimia haemolytica; isolate (source animal id): 173,> 16 µg/mL
same,minimum inhibitory concentration,Mannheimia haemolytica; isolate (source animal id): 179,> 16 µg/mL
same,minimum inhibitory concentration,Mannheimia haemolytica; isolate (source animal id): 180,> 16 µg/mL
same,minimum inhibitory concentration,Mannheimia haemolytica; [5],> 16 µg/mL
same,minimum inhibitory concentration,Mannheimia haemolytica; isolate (source animal id): 186,> 16 µg/mL
same,minimum inhibitory concentration,Mannheimia haemolytica; [6],> 16 µg/mL
same,minimum inhibitory concentration,Mannheimia haemolytica; isolate (source animal id): 188,> 16 µg/mL
same,minimum inhibitory concentration,Mannheimia haemolytica; [7],≤ 0.25 µg/mL
same,minimum inhibitory concentration,Mannheimia haemolytica; isolate (source animal id): 191,> 16 µg/mL
same,minimum inhibitory concentration,Mannheimia haemolytica; isolate (source animal id): 192,≤ 0.25 µg/mL
same,minimum inhibitory concentration,Mannheimia haemolytica; isolate (source animal id): 201,> 16 µg/mL
same,minimum inhibitory concentration,Mannheimia haemolytica; isolate (source animal id): 202,> 16 µg/mL
same,minimum inhibitory concentration,Mannheimia haemolytica; isolate (source animal id): 209,> 16 µg/mL
same,minimum inhibitory concentration,Mannheimia haemolytica; [8],> 16 µg/mL
same,minimum inhibitory concentration,Mannheimia haemolytica; isolate (source animal id): 220,> 16 µg/mL
same,minimum inhibitory concentration,Mannheimia haemolytica; isolate (source animal id): 221,16 µg/mL
same,minimum inhibitory concentration,Mannheimia haemolytica; [9],> 16 µg/mL
same,minimum inhibitory concentration,Mannheimia haemolytica; isolate (source animal id): 233,> 16 µg/mL
same,minimum inhibitory concentration,Mannheimia haemolytica; isolate (source animal id): 237,≤ 0.25 µg/mL
same,minimum inhibitory concentration,Mannheimia haemolytica; [10],> 16 µg/mL
same,minimum inhibitory concentration,Mannheimia haemolytica; [11],≤ 0.25 µg/mL
same,minimum inhibitory concentration,Mannheimia haemolytica; isolate (source animal id): 253,≤ 0.25 µg/mL
same,minimum inhibitory concentration,Mannheimia haemolytica; isolate (source animal id): 259,16 µg/mL
same,minimum inhibitory concentration,Mannheimia haemolytica; isolate (source animal id): 260,≤ 0.25 µg/mL
same,minimum inhibitory concentration,Mannheimia haemolytica; isolate (source animal id): 262,> 16 µg/mL
same,minimum inhibitory concentration,Mannheimia haemolytica; [12],> 16 µg/mL
same,minimum inhibitory concentration,Mannheimia haemolytica; isolate (source animal id): 287,≤ 0.25 µg/mL
same,minimum inhibitory concentration,Mannheimia haemolytica; isolate (source animal id): 288,≤ 0.25 µg/mL
same,minimum inhibitory concentration,Mannheimia haemolytica; isolate (source animal id): 291,≤ 0.25 µg/mL
same,minimum inhibitory concentration,Mannheimia haemolytica; isolate (source animal id): 293,≤ 0.25 µg/mL
same,minimum inhibitory concentration,Mannheimia haemolytica; [13],≤ 0.25 µg/mL
same,minimum inhibitory concentration,Mannheimia haemolytica; isolate (source animal id): 299,≤ 0.25 µg/mL
same,minimum inhibitory concentration,Mannheimia haemolytica; isolate (source animal id): 300,≤ 0.25 µg/mL
same,minimum inhibitory concentration,Mannheimia haemolytica; isolate (source animal id): 302,≤ 0.25 µg/mL
same,minimum inhibitory concentration,Mannheimia haemolytica; isolate (source animal id): 304,≤ 0.25 µg/mL
same,minimum inhibitory concentration,Mannheimia haemolytica; isolate (source animal id): 306,≤ 0.25 µg/mL
same,minimum inhibitory concentration,Mannheimia haemolytica; isolate (source animal id): 308,≤ 0.25 µg/mL
same,minimum inhibitory concentration,Mannheimia haemolytica; isolate (source animal id): 309,≤ 0.25 µg/mL
same,minimum inhibitory concentration,Mannheimia haemolytica; isolate (source animal id): 313,≤ 0.25 µg/mL
same,minimum inhibitory concentration,Mannheimia haemolytica; isolate (source animal id): 318,≤ 0.25 µg/mL
same,minimum inhibitory concentration,Mannheimia haemolytica; [14],≤ 0.25 µg/mL
same,minimum inhibitory concentration,Mannheimia haemolytica; isolate (source animal id): 321,≤ 0.25 µg/mL
same,minimum inhibitory concentration,Mannheimia haemolytica; isolate (source animal id): 323,≤ 0.25 µg/mL
same,minimum inhibitory concentration,Mannheimia haemolytica; isolate (source animal id): 324,≤ 0.25 µg/mL
same,minimum inhibitory concentration,Mannheimia haemolytica; isolate (source animal id): 326,≤ 0.25 µg/mL
same,minimum inhibitory concentration,Mannheimia haemolytica; isolate (source animal id): 328,≤ 0.25 µg/mL
same,minimum inhibitory concentration,Mannheimia haemolytica; isolate (source animal id): 329,≤ 0.25 µg/mL
same,minimum inhibitory concentration,Mannheimia haemolytica; [15],≤ 0.25 µg/mL
same,minimum inhibitory concentration,Mannheimia haemolytica; isolate (source animal id): 335,≤ 0.25 µg/mL
same,minimum inhibitory concentration,Mannheimia haemolytica; isolate (source animal id): 338,≤ 0.25 µg/mL
same,minimum inhibitory concentration,Enterococcus spp.; isolate (source animal id): 2,≤ 0.25 µg/mL
same,minimum inhibitory concentration,Enterococcus spp.; isolate (source animal id): 35,1 µg/mL
same,minimum inhibitory concentration,Enterococcus spp.; isolate (source animal id): 42,1 µg/mL
same,minimum inhibitory concentration,Enterococcus spp.; isolate (source animal id): 44,1 µg/mL
same,minimum inhibitory concentration,Enterococcus spp.; isolate (source animal id): 79,1 µg/mL
same,minimum inhibitory concentration,Enterococcus spp.; isolate (source animal id): 88,≤ 0.25 µg/mL
same,minimum inhibitory concentration,Enterococcus spp.; isolate (source animal id): 91,≤ 0.25 µg/mL
same,minimum inhibitory concentration,Enterococcus spp.; isolate (source animal id): 92,0.5 µg/mL
same,minimum inhibitory concentration,Enterococcus spp.; isolate (source animal id): 111,≤ 0.25 µg/mL
same,minimum inhibitory concentration,Enterococcus spp.; [1],1 µg/mL
same,minimum inhibitory concentration,Enterococcus spp.; [2],1 µg/mL
same,minimum inhibitory concentration,Enterococcus spp.; [3],0.5 µg/mL
same,minimum inhibitory concentration,Enterococcus spp.; isolate (source animal id): 158,1 µg/mL
same,minimum inhibitory concentration,Enterococcus spp.; isolate (source animal id): 168,1 µg/mL
same,minimum inhibitory concentration,Enterococcus spp.; isolate (source animal id): 169,1 µg/mL
same,minimum inhibitory concentration,Enterococcus spp.; [4],0.5 µg/mL
same,minimum inhibitory concentration,Enterococcus spp.; isolate (source animal id): 175,1 µg/mL
same,minimum inhibitory concentration,Enterococcus spp.; isolate (source animal id): 177,1 µg/mL
same,minimum inhibitory concentration,Enterococcus spp.; isolate (source animal id): 181,1 µg/mL
same,minimum inhibitory concentration,Enterococcus spp.; isolate (source animal id): 182,2 µg/mL
same,minimum inhibitory concentration,Enterococcus spp.; [5],1 µg/mL
same,minimum inhibitory concentration,Enterococcus spp.; [6],2 µg/mL
same,minimum inhibitory concentration,Enterococcus spp.; [7],2 µg/mL
same,minimum inhibitory concentration,Enterococcus spp.; isolate (source animal id): 194,0.5 µg/mL
same,minimum inhibitory concentration,Enterococcus spp.; isolate (source animal id): 195,1 µg/mL
same,minimum inhibitory concentration,Enterococcus spp.; isolate (source animal id): 197,0.5 µg/mL
same,minimum inhibitory concentration,Enterococcus spp.; [8],1 µg/mL
same,minimum inhibitory concentration,Enterococcus spp.; isolate (source animal id): 214,0.5 µg/mL
same,minimum inhibitory concentration,Enterococcus spp.; isolate (source animal id): 222,0.5 µg/mL
same,minimum inhibitory concentration,Enterococcus spp.; [9],0.5 µg/mL
same,minimum inhibitory concentration,Enterococcus spp.; isolate (source animal id): 228,1 µg/mL
same,minimum inhibitory concentration,Enterococcus spp.; isolate (source animal id): 230,2 µg/mL
same,minimum inhibitory concentration,Enterococcus spp.; isolate (source animal id): 235,1 µg/mL
same,minimum inhibitory concentration,Enterococcus spp.; isolate (source animal id): 236,0.5 µg/mL
same,minimum inhibitory concentration,Enterococcus spp.; isolate (source animal id): 239,0.5 µg/mL
same,minimum inhibitory concentration,Enterococcus spp.; [10],2 µg/mL
same,minimum inhibitory concentration,Enterococcus spp.; isolate (source animal id): 244,0.5 µg/mL
same,minimum inhibitory concentration,Enterococcus spp.; isolate (source animal id): 246,1 µg/mL
same,minimum inhibitory concentration,Enterococcus spp.; isolate (source animal id): 247,2 µg/mL
same,minimum inhibitory concentration,Enterococcus spp.; isolate (source animal id): 250,0.5 µg/mL
same,minimum inhibitory concentration,Enterococcus spp.; [11],1 µg/mL
same,minimum inhibitory concentration,Enterococcus spp.; isolate (source animal id): 268,≤ 0.25 µg/mL
same,minimum inhibitory concentration,Enterococcus spp.; [12],1 µg/mL
same,minimum inhibitory concentration,Enterococcus spp.; isolate (source animal id): 285,1 µg/mL
same,minimum inhibitory concentration,Enterococcus spp.; isolate (source animal id): 289,≤ 0.25 µg/mL
same,minimum inhibitory concentration,Enterococcus spp.; isolate (source animal id): 290,≤ 0.25 µg/mL
same,minimum inhibitory concentration,Enterococcus spp.; isolate (source animal id): 296,≤ 0.25 µg/mL
same,minimum inhibitory concentration,Enterococcus spp.; [13],≤ 0.25 µg/mL
same,minimum inhibitory concentration,Enterococcus spp.; isolate (source animal id): 301,≤ 0.25 µg/mL
same,minimum inhibitory concentration,Enterococcus spp.; isolate (source animal id): 310,1 µg/mL
same,minimum inhibitory concentration,Enterococcus spp.; [14],≤ 0.25 µg/mL
same,minimum inhibitory concentration,Enterococcus spp.; isolate (source animal id): 331,≤ 0.25 µg/mL
same,minimum inhibitory concentration,Enterococcus spp.; [15],≤ 0.25 µg/mL
same,minimum inhibitory concentration,Enterococcus spp.; isolate (source animal id): 341,0.5 µg/mL
